Key:
human JAK1 kinase domain = target: T1, human JAK1 kinase domain (Homo sapiens, UniProt P23458); assay: JAK inhibition test: measurement of JAK1 activity; format: biochemical; conditions: 500 μM ATP, absorbance at 450 nm
T1 construct: attached to the N-terminal of the 850 to 1154 (C-terminal) fragment of the human JAK1 protein; GST (N); purchased Carna Biosciences, Inc. (Kobe, Japan); host or cells: baculovirus expression system
From the text: (1) Preparation of Human JAK1
A purified human JAK1 kinase domain was purchased from Carna Biosciences, Inc. (Kobe, Japan). This was obtained as follows. A GST tag (62 kDa) was attached to the N-terminal of the 850 to 1154 (C-terminal) fragment of the human JAK1 protein (accession number #BAD92294.1), expressed using a baculovirus expression system, and then purified using Glutathion Sepharose chromatography.
(2) Measurement of JAK 1 Activity
(§1) As substrates, Biotin-Lyn-Substrate-2 (Biotin-XEQED EPEGF YFEWL EPE, X=ε−Acp (Peptide Institute, Inc., Osaka, Japan) and ATP were used. As an assay buffer, 15 mM Tris-HCl pH 7.5 containing 0.01% Tween 20 and 2 mM DTT was used. Normally, 20 μL of a substrate solution (an assay buffer containing 627 nM Biotin-Lyn-Substrate-2, 500 μM ATP, and 25 mM MgCl2), an assay buffer containing 10 μL of a test compound, and 20 μL of an enzyme solution were added to a microplate, and stirred sufficiently.
(§2) After incubation at room temperature for 1 hour, the plate was washed with a cleaning buffer (50 mM Tris-HCl pH 7.5, 150 mM NaCl, 0.02% Tween 20), and a blocking buffer (a cleaning buffer containing 0.1% bovine serum albumin) was added to the plate. After incubation at room temperature for 30 minutes, the blocking buffer was removed, and an HRP-PY-20 solution (obtained by diluting HRP-PY-20 solution with the blocking buffer 500 times) was added. After incubation at room temperature for 30 minutes, the plate was washed four times, and a TMB substrate solution (Sigma) was added to the plate. After incubation at room temperature for 4 minutes, 1 M sulfuric acid was added to stop the reaction. Enzyme activity was measured with an absorbance at 450 nm. The JAK1 inhibitory activity of the test compound was calculated by taking the concentration of the test compound which inhibits the JAK1 activity by 50% as an IC50 value.

human JAK2 kinase domain = target: T2, human JAK2 kinase domain (Homo sapiens, UniProt O60674); assay: JAK inhibition test: measurement of JAK2 activity; format: biochemical; conditions: 25 μM ATP, absorbance at 450 nm
T2 construct: attached to the N-terminal of the 826 to 1132 (C-terminal) fragment of the human JAK2 protein; His tag (N); purchased Carna Biosciences, Inc. (Kobe, Japan); host or cells: baculovirus expression system
From the text: (3) Preparation of Human JAK2
(§3) A purified human JAK2 kinase domain was purchased from Carna Biosciences, Inc. (Kobe, Japan). This was obtained as follows. A His tag (39 kDa) was attached to the N-terminal of the 826 to 1132 (C-terminal) fragment of the human JAK2 protein (accession number #NP_004963.1), expressed using a baculovirus expression system, and then purified using Ni-NTA affinity column chromatography.
(4) Measurement of JAK2 Activity
as §1, with “25” for “500”
as §2, with “JAK2” for “JAK1”

human JAK3 kinase domain = target: T3, human JAK3 kinase domain (Homo sapiens, UniProt P52333); assay: JAK inhibition test: measurement of JAK3 activity; format: biochemical; conditions: 20 μM ATP, absorbance at 450 nm
T3 construct: attached to the N-terminal of the 796 to 1124 (C-terminal) fragment of the human JAK3 protein; His tag (N); purchased Carna Biosciences, Inc. (Kobe, Japan); host or cells: baculovirus expression system
From the text: (5) Preparation of Human JAK3
as §3, with “JAK3” for “JAK2”, “(41” for “(39”, “796” for “826”, “1124” for “1132”, “#NM_000215),” for “#NP_004963.1),”
(6) Measurement of JAK3 Activity
as §1, with “20” for “500”, “solution” for “solution were added to a microplate, and stirred sufficiently.”
as §2, with “JAK3” for “JAK1”

[1] = test system: stat5 phosphorylation of CD3+lymphocytes in the blood; assay: Measurement of PD activity (stat5 phosphorylation in blood after oral dosing); format: in vivo, rat; conditions: 20 mg/kg orally to normal rats, blood collected 4 hours later, cytokine stimulation, FACS
Description: Measurement of PD activity was carried out by evaluating the degree of stat5 phosphorylation of CD3+lymphocytes in the blood.
Compounds at (20 mg/kg) were orally administered to normal rats, and 4 hours later, 200 μL of blood was collected therefrom. For phosphorylation of stat5, stimulating cytokines (IL-2, 7, 15, etc., Peprotec) were added thereto, and CD3 antibodies fluorescently labeled (BD pharmingen) was added at a dose of 1/20, followed by incubation at 37° C. 5 mL of a lysing buffer (BD Pharmingen) was added to stop the reaction, and then washed by the addition of PBS (−) (Phosphate Buffered Saline (−), manufactured by Shin Yang Chemical Industries, Ltd.). 300 μL of a permeabilization buffer (BD Pharmingen) was added thereto, followed by immobilization on ice. The resultant was washed with a FACS buffer, and then fluorescently-labeled phosphorylation stat5 antibodies (BD Pharmingen) were added thereto, followed by further incubation at room temperature. After incubation, the cells were washed with a FACS buffer, insoluble materials were removed through a filter. Fluorescence measurement was carried out using a FACScalibur. For an individual of each rat, a sample with addition of cytokine and a sample without addition of cytokine were prepared, and a difference of the respective average fluorescence intensities (AMFI) was determined. As a control, the blood of rats to which the compound had not been administered was used, and an inhibitory rate was calculated from the average fluorescence intensity of the respective group of the samples to which the compound had been added, relative to the average fluorescence intensity of the control sample (Inhibitory Rate (%)=100*(1−(ΔMFI of Sample)/(ΔMFI of Control)).

[2] = test system: heart transplantation rejection; assay: Rat heart transplantation (heterotopic, ACI donor to Lewis recipient); format: in vivo; conditions: 20 mg/kg orally once daily for 14 days from transplantation, observed 29 days
Description: Heterotopic heart transplantation into the rat abdomen was performed in accordance with reference materials. With regard to the animals, ACI-based male rats were used as donors and Lewis-based male rats were used as recipients. In addition, Lewis rats were fasted the day before the transplant. The test drugs were orally administered at a dose of 20 mg/kg once daily for 14 days from the date of transplantation. For determining the heart transplantation rejection, the heart transplantation was observed daily by palpation for 29 days after transplantation, and stoppage of beating was taken as rejection. The survival period in days was counted until the day before rejection. From the survival period in days, a value of MST (Median Survival Time) was determined.

T2 sequence (O60674 826-1132): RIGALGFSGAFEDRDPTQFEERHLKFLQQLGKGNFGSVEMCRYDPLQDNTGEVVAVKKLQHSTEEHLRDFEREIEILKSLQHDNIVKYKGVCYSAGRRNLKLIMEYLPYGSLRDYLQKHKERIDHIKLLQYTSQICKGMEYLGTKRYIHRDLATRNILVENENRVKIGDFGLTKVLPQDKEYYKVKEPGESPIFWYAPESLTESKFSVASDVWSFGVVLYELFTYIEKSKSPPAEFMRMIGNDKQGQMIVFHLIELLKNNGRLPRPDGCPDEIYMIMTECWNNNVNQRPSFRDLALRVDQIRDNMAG
T3 sequence (P52333 796-1124): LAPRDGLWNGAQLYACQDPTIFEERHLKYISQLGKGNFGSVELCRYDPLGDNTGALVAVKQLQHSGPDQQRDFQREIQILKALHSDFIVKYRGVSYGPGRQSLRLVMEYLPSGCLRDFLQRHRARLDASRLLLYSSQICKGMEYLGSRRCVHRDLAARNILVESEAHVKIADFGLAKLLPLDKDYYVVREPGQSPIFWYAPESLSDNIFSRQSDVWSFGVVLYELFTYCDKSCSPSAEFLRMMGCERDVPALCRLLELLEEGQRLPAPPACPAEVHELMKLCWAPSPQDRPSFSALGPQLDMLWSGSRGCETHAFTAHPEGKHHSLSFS
T1 sequence (P23458 850-1154): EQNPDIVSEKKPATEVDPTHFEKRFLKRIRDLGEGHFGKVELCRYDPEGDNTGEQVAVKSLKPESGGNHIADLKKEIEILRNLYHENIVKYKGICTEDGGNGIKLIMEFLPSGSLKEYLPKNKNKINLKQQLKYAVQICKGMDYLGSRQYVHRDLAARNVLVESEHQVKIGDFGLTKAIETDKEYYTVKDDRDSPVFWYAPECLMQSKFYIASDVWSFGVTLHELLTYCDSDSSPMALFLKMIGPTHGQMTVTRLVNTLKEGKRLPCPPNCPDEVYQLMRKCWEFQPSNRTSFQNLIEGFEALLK

| Structure (SMILES) | IC50 (human JAK1 kinase domain) [nM] | IC50 (human JAK2 kinase domain) [nM] | IC50 (human JAK3 kinase domain) [nM] | Inhibition Ratio (stat5 phosphorylation) [1] [%] | MST (Median Survival Time) [2] [days] | melting point |
| --- | --- | --- | --- | --- | --- | --- |
| C[C@@H]1CCN(C(=O)CC#N)C[C@@H]1n1cc(Br)c2cnc3[nH]cc(C#N)c3c21 (racemic) [Example 2-2] | 6.9 | 2.5 | 0.27 |  |  |  |
| C[C@@H]1CCN(C(=O)CC#N)C[C@@H]1n1ccc2cnc3[nH]cc(Br)c3c21 (racemic) [Example 2-4] | 6.8 | 1 | 0.26 |  |  |  |
| C[C@@H]1CCN(C(=O)CC#N)C[C@@H]1n1cc(Br)c2cnc3[nH]ccc3c21 (racemic) [Example 2-5] | 1.1 | 0.6 | 0.3 | 86 |  |  |
| C[C@@H]1CCN(C(=O)CC#N)C[C@@H]1n1ccc2cnc3[nH]ccc3c21 (racemic) [Example 2-7] |  |  |  | 95 | >28 |  |
| C[C@@H]1CCN(C(=O)Cn2cnnn2)C[C@@H]1n1ccc2cnc3[nH]ccc3c21 (racemic) [Example 2-14] | 3.1 | 2.5 | 0.52 |  |  |  |
| Cc1nnnn1CC(=O)N1CC[C@@H](C)[C@@H](n2ccc3cnc4[nH]ccc4c32)C1 (racemic) [Example 2-15] | 4.7 | 2.9 | 1.3 |  |  |  |
| C[C@@H]1CCN(C(=O)CC#N)C[C@@H]1n1cc(-c2ccncc2)c2cnc3[nH]cc(C#N)c3c21 (racemic) [Example 2-17] | 0.76 | 0.53 | 0.41 |  |  |  |
| Cc1cc2cnc3[nH]ccc3c2n1[C@H]1CN(C(=O)CC#N)CC[C@H]1C (racemic) [Example 2-74] |  |  |  | 98 |  |  |
| C[C@@H]1CCN(c2cnc(C#N)cn2)C[C@@H]1n1ccc2cnc3[nH]ccc3c21 (racemic) [Example 4-1] | 7.9 | 3 | 0.88 |  |  |  |
| C[C@@H]1CCN(c2ccc(C#N)cn2)C[C@@H]1n1ccc2cnc3[nH]ccc3c21 (racemic) [Example 4] | 16 | 3.5 | 1.1 |  |  |  |
| C[C@@H]1CCN(C(=O)N(C)CC#N)C[C@@H]1n1ccc2cnc3[nH]ccc3c21 (racemic) [Example 5-1] | 3 | 0.89 | 0.61 |  |  |  |
| C[C@@H]1CCN(S(=O)(=O)N(C)CC#N)C[C@@H]1n1ccc2cnc3[nH]ccc3c21 (racemic) [Example 9-3] |  |  |  | 62 |  |  |
| O[C@]12CC3C[C@H](C1)[C@H](n1ccc4cnc5[nH]ccc5c41)[C@@H](C3)C2 [Example 1, (1S,3R,4R,5s)-4-(dipyrrolo[2,3-b:2′,3′-d]pyridin-1(6H)-yl)adamantan-1-ol] | 6.1 | 1.6 | 1 |  |  |  |
| C[C@@H]1CCN(C(=O)CC#N)C[C@@H]1n1ccc2cnc3[nH]ccc3c21 [Example 2-10] | 0.49 | 0.35 | 0.19 |  | 17 |  |
| C[C@H]1CCN(C(=O)CC#N)C[C@H]1n1ccc2cnc3[nH]cc(C#N)c3c21 [Example 2-18] |  |  |  |  |  | 286 to 290 °C (dec.) |
| C[C@@H]1CCN(C(=O)CC#N)C[C@@H]1n1ccc2cnc3[nH]cc(C#N)c3c21 [Example 2-19] | 3.2 | 1.4 | 0.11 |  |  | 288 to 290 °C (dec.) |

— US20120034250A1, “CONDENSED PYRROLOPYRIDINE DERIVATIVE” (Astellas Pharma Inc., priority 2009, published 2012)
